Laboratory results reported in publication PMC9757072, “NrnA is a 5′-3′ exonuclease that processes short RNA substrates in vivo and in vitro” (Nucleic Acids Research, 2022).

Experiments:
NrnABs = molecular target: T1, NrnABs (Bacillus subtilis, UniProt O34600, D156N/D80N); assay: DRaCALA
T1 construct: gene nrnA

OrnEc = molecular target: T2, OrnEc (Escherichia coli, UniProt P0A784); assay: cleavage of […]'-32P RNA mixture, denaturing PAGE; assay type: biochemical; conditions: 20 nM enzyme; GG is the 2-mer of the 2-7 and 10-mer mix; pH 8.0, 100 mM NaCl, Mg or Mn; labelled compound
T2 sequence (P0A784 1-181): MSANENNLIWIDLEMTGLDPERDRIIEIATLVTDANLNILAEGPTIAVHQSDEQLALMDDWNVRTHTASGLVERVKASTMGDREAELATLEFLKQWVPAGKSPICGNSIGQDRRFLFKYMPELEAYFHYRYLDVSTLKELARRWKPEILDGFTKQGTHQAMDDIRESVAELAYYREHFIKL

CnpBMt = CnpBMt (Mycobacterium tuberculosis, UniProt P71615); assay: cleavage of […]-c-di-AMP, denaturing PAGE; assay type: biochemical; conditions: 100 nM enzyme, 1 uM substrate; pH 8.0, 300 mM NaCl, 200 uM MnCl2, room temperature; labelled compound
CnpBMt, sequence (P71615 whole entry): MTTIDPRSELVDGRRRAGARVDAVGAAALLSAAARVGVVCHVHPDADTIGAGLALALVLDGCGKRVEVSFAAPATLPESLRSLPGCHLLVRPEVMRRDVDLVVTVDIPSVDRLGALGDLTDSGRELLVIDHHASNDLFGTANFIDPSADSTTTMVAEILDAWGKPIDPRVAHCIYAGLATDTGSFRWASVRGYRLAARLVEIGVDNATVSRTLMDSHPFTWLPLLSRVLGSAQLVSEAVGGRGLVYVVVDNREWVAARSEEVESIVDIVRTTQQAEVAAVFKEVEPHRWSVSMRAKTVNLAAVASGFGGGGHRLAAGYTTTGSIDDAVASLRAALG

GdpP(82–659)Bs = molecular target: T3, GdpP(82–659)Bs (Bacillus subtilis, UniProt P37484); assay: cleavage of […]-c-di-AMP, denaturing PAGE; assay type: biochemical; conditions: 100 nM enzyme, 1 uM substrate; pH 8.0, 300 mM NaCl, 200 uM MnCl2, room temperature; labelled compound; positive control
T3 construct: cytoplasmic portion, residues 82-659; N-terminal 6xHis tag kept; expressed in E. coli
T3 sequence (P37484 82-659): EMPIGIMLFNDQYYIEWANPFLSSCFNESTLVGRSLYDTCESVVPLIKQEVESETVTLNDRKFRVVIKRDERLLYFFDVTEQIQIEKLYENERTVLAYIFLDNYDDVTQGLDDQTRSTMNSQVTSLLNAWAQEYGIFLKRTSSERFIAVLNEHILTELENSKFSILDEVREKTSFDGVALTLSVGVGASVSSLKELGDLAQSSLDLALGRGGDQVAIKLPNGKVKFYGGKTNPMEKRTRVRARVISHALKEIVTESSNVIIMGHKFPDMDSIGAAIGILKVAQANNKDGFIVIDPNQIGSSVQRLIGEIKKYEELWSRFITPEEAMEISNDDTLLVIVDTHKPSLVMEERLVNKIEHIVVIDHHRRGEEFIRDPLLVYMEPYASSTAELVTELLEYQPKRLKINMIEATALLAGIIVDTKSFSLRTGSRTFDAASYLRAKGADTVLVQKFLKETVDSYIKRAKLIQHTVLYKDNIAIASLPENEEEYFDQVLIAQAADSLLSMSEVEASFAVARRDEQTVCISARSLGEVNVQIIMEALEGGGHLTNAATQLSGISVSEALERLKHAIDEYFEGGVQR

CnpBMs = molecular target: T4, CnpBMs (Mycolicibacterium smegmatis, UniProt A0QVM9); assay: cleavage of […]-c-di-AMP, denaturing PAGE; assay type: biochemical; conditions: 100 nM enzyme, 1 uM substrate; pH 8.0, 300 mM NaCl, 200 uM MnCl2, room temperature; labelled compound
T4 construct: gene MSMEG_2630
T4 sequence (A0QVM9 1-340): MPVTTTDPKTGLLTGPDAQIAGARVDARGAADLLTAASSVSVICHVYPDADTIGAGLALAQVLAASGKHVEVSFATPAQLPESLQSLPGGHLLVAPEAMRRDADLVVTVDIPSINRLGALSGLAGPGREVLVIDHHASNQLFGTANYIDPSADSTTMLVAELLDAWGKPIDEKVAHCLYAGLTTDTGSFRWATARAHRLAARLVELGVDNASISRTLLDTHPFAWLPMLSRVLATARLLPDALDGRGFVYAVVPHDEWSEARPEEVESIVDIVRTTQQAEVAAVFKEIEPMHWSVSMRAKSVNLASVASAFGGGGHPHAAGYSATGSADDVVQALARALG

[1] = substrate: Nc1ccn([C@@H]2O[C@H](COP(=O)(O)O[C@H]3[C@@H](O)[C@H](n4ccc(N)nc4=O)O[C@@H]3COP(=O)(O)O[C@H]3[C@@H](O)[C@H](n4cnc5c(N)ncnc54)O[C@@H]3COP(=O)(O)O)[C@@H](O)[C@H]2O)c(=O)n1; assay: continuous PPDK/luciferase coupled assay of AMP release; assay type: biochemical, Bacillus subtilis; conditions: 10 mM MgCl2, 0.5 mM MnCl2, pH 8.0, 25 C, value assigned to ACC by printed order (AA or ACC), 5'-phosphate inferred from AMP release
[2] = substrate: Nc1ncnc2c1ncn2[C@@H]1O[C@H](COP(=O)(O)O[C@H]2[C@@H](O)[C@H](n3cnc4c(N)ncnc43)O[C@@H]2COP(=O)(O)O)[C@@H](O)[C@H]1O; assay: as above; assay type: biochemical, Bacillus subtilis; conditions: 10 mM MgCl2, 0.5 mM MnCl2, pH 8.0, 25 C, value assigned to AA by printed order (AA or ACC), 5'-phosphate inferred from 2 AMP per AA

T1 sequence (O34600 whole entry D80N/D156N): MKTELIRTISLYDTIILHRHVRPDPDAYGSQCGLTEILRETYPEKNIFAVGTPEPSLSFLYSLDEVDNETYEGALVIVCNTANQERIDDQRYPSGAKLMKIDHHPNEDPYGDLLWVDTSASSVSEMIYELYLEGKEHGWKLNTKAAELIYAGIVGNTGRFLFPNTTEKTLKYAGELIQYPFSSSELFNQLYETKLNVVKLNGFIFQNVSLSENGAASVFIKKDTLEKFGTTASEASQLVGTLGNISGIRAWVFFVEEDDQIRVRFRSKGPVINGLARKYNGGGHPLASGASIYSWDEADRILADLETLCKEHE

Molecule `Nc1ncnc2c1ncn2[C@@H]1O[C@H](COP(=O)(O)O[C@H]2[C@@H](O)[C@H](n3cnc4c(N)ncnc43)O[C@@H]2COP(=O)(O)O)[C@@H](O)[C@H]1O` [AA] has a Kd (NrnABs) of 450 ± 30 nM.

In the case of `Nc1ccn([C@@H]2O[C@H](COP(=O)(O)O)[C@@H](OP(=O)(O)OC[C@H]3O[C@@H](n4cnc5c(N)ncnc54)[C@H](O)[C@@H]3O)[C@H]2O)c(=O)n1` [CA], the Kd (NrnABs) is reported as 2270 ± 130 nM.

Work on `Nc1nc2c(ncn2[C@@H]2O[C@H](COP(=O)(O)O)[C@@H](OP(=O)(O)OC[C@H]3O[C@@H](n4cnc5c(N)ncnc54)[C@H](O)[C@@H]3O)[C@H]2O)c(=O)[nH]1` [GA] yielded a Kd (NrnABs) of 360 ± 130 nM.

For `Nc1nc2c(ncn2[C@@H]2O[C@H](COP(=O)(O)O[C@H]3[C@@H](O)[C@H](n4cnc5c(=O)[nH]c(N)nc54)O[C@@H]3COP(=O)(O)O)[C@@H](O)[C@H]2O)c(=O)[nH]1` [GG], the Kd (NrnABs) was 210 nM and the “cleavage of 5'-32P RNA mixture, denaturing PAGE” value (OrnEc) was “dinucleotides are rapidly processed, and only minimal trinucleotide processing was seen”.

`Nc1ncnc2c1ncn2[C@@H]1O[C@H](COP(=O)(O)O[C@H]2[C@@H](O)[C@H](n3ccc(=O)[nH]c3=O)O[C@@H]2COP(=O)(O)O)[C@@H](O)[C@H]1O` [UA] showed a Kd (NrnABs) of 1290 ± 180 nM.

With `Nc1ncnc2c1ncn2[C@@H]1O[C@@H]2COP(=O)(O)O[C@H]3[C@@H](O)[C@H](n4cnc5c(N)ncnc54)O[C@@H]3COP(=O)(O)O[C@H]2[C@H]1O` [c-di-AMP] the “cleavage of 32P-c-di-AMP, denaturing PAGE” value (“cleavage of 32P-c-di-AMP” for short) (CnpBMt) was “only CnpB demonstrated an ability to directly hydrolyze c-di-AMP to AMP”, the “cleavage of 32P-c-di-AMP” value (GdpP(82–659)Bs) was “cytoplasmic portion of B. subtilis GdpP, which is known to hydrolyze c-di-AMP” and the “cleavage of 32P-c-di-AMP” value (CnpBMs) was “All CnpB-like proteins exhibited robust hydrolysis of c-di-AMP”.

B1: NrnABs (Bacillus subtilis subsp. subtilis str. 168) (protein)
chain: MKTELIRTISLYDTIILHRHVRPDPDAYGSQCGLTEILRETYPEKNIFAVGTPEPSLSFLYSLDEVDNETYEGALVIVCDTANQERIDDQRYPSGAKLMKIDHHPNEDPYGDLLWVDTSASSVSEMIYELYLEGKEHGWKLNTKAAELIYAGIVGDTGRFLFPNTTEKTLKYAGELIQYPFSSSELFNQLYETKLNVVKLNGFIFQNVSLSENGAASVFIKKDTLEKFGTTASEASQLVGTLGNISGIRAWVFFVEEDDQIRVRFRSKGPVINGLARKYNGGGHPLASGASIYSWDEADRILADLETLCKEHE
notes: full length; N-terminal 10xHis-SUMO tag cleaved by bdSENP1; expressed in E. coli T7 Express
Work on B1 yielded a Km [1] of 325 µM and a Km [2] of 90 µM.
